Reference: patent publication US20030105595A1, “Chi square tests for gene expression” (priority 2001, published 2003)

Columns and labels:
Assay in all cases: multi-sample expression analysis, band intensity
Type in all cases: in vivo
Conditions in all cases: Pooled
band b1i0_57.4 = test system: band b1i0_57.4
Excerpt: (§1) To practice the invention, one skilled in the art obtains a source of biological samples, as well as expression information about the biological samples, i.e., expression information relative to one or more genes or polypeptides encoded therein. Data is collected for a particular phenotype appearing within a given population under study, whereby expression of that phenotype is to be determined within the biological sample under study. The phenotype is correlated to a specific genotype, which is then represented as a band with a given intentity, thus indicative of gene expression levels, and is then compared to control samples. Alternatively, the response of a gene to dosage with one or more drugs is determined by band intensity. The standard deviation from the mean (StdDev) is calculated for the control samples, and is fit to functional form in the following equation: […]
(§2) A multi-sample expression analysis was run using the program described in Example 1. For each drug run, only runs for genes producing bands with a p-value<10^−5 in at least 2 of the following 3 comparisons were selected: low dose versus vehicle, high dose versus vehicle and low dose versus high dose. […] Since clusters found using all 13K bands included some of the best 2K bands, it was concluded that no essential signal was lost (see FIGS. 3 and 4). […] A comparison using the same analytic tests on only the best 2K bands. It can be seen that the Chi Square metric provides a better distinction between low and high doses than the correlation metric, which is not able to distinguish between the low dose and the high dose (see FIG. 6). The low-dose/high dose statistical variation is more pronounced when only the best 2K bands are selected.

band b1i0_53.0 = test system: band b1i0_53.0
Excerpt: as §1, §2

band b1i0_69.4 = test system: band b1i0_69.4
Excerpt: as §1, §2

band b1i0_54.5 = test system: band b1i0_54.5
Excerpt: as §1, §2

band b1i0_62.5 = test system: band b1i0_62.5
Excerpt: as §1, §2

band b1i0_63.7 = test system: band b1i0_63.7
Excerpt: as §1, §2

band b1i0_60.7 = test system: band b1i0_60.7
Excerpt: as §1, §2

band b1i0_51.7 = test system: band b1i0_51.7
Excerpt: as §1, §2

For `CC(=O)[C@@]1(O)CC[C@H]2[C@@H]3C=C(Cl)C4=CC(=O)[C@@H]5C[C@@H]5[C@]4(C)[C@H]3CC[C@@]21C` [Cyproterone], the “band intensity b1i0_57.4” value (band b1i0_57.4; High dose, 1d) was 1105, the “band intensity b1i0_57.4” value (band b1i0_57.4; High dose, 3d) was 1021 and the “band intensity b1i0_57.4” value (band b1i0_57.4; High dose, 7d) was 1105. The “band intensity b1i0_57.4” value (band b1i0_57.4; High dose, 14d) was 775.5, the “band intensity b1i0_57.4” value (band b1i0_57.4; Low dose, 1d) was 1285 and the “band intensity b1i0_57.4” value (band b1i0_57.4; Low dose, 3d) was 1338. For the same molecule, the “band intensity b1i0_57.4” value (band b1i0_57.4; Low dose, 7d) was 1437, the “band intensity b1i0_53.0” value (band b1i0_53.0; High dose, 1d) was 93.39 and the “band intensity b1i0_53.0” value (band b1i0_53.0; High dose, 3d) was 99.72. The “band intensity b1i0_53.0” value (band b1i0_53.0; High dose, 7d) was 99.01, the “band intensity b1i0_53.0” value (band b1i0_53.0; High dose, 14d) was 40.97 and the “band intensity b1i0_53.0” value (band b1i0_53.0; Low dose, 1d) was 111.6. For the same molecule, the “band intensity b1i0_53.0” value (band b1i0_53.0; Low dose, 3d) was 99.85, the “band intensity b1i0_53.0” value (band b1i0_53.0; Low dose, 7d) was 99.01 and the “band intensity b1i0_69.4” value (band b1i0_69.4; High dose, 1d) was 254.9. For the same molecule, the “band intensity b1i0_69.4” value (band b1i0_69.4; High dose, 3d) was 250.7, the “band intensity b1i0_69.4” value (band b1i0_69.4; High dose, 7d) was 317.9 and the “band intensity b1i0_69.4” value (band b1i0_69.4; High dose, 14d) was 528.3. For the same molecule, the “band intensity b1i0_69.4” value (band b1i0_69.4; Low dose, 1d) was 243.2, the “band intensity b1i0_69.4” value (band b1i0_69.4; Low dose, 3d) was 270.7 and the “band intensity b1i0_69.4” value (band b1i0_69.4; Low dose, 7d) was 326.3. For the same molecule, the “band intensity b1i0_54.5” value (band b1i0_54.5; High dose, 1d) was 98.48, the “band intensity b1i0_54.5” value (band b1i0_54.5; High dose, 3d) was 80.83 and the “band intensity b1i0_54.5” value (band b1i0_54.5; High dose, 7d) was 81.21. For the same molecule, the “band intensity b1i0_54.5” value (band b1i0_54.5; High dose, 14d) was 69.78, the “band intensity b1i0_54.5” value (band b1i0_54.5; Low dose, 1d) was 94.41 and the “band intensity b1i0_54.5” value (band b1i0_54.5; Low dose, 3d) was 93.73. The “band intensity b1i0_54.5” value (band b1i0_54.5; Low dose, 7d) was 98.2, the “band intensity b1i0_62.5” value (band b1i0_62.5; High dose, 1d) was 49.19 and the “band intensity b1i0_62.5” value (band b1i0_62.5; High dose, 3d) was 64.93. For the same molecule, the “band intensity b1i0_62.5” value (band b1i0_62.5; High dose, 7d) was 71.82, the “band intensity b1i0_62.5” value (band b1i0_62.5; High dose, 14d) was 148.3 and the “band intensity b1i0_62.5” value (band b1i0_62.5; Low dose, 1d) was 62.41. For the same molecule, the “band intensity b1i0_62.5” value (band b1i0_62.5; Low dose, 3d) was 59.37, the “band intensity b1i0_62.5” value (band b1i0_62.5; Low dose, 7d) was 70.85 and the “band intensity b1i0_63.7” value (band b1i0_63.7; High dose, 1d) was 51.36. The “band intensity b1i0_63.7” value (band b1i0_63.7; High dose, 3d) was 111.8, the “band intensity b1i0_63.7” value (band b1i0_63.7; High dose, 7d) was 154.7 and the “band intensity b1i0_63.7” value (band b1i0_63.7; High dose, 14d) was 18.52. For the same molecule, the “band intensity b1i0_63.7” value (band b1i0_63.7; Low dose, 1d) was 68.2, the “band intensity b1i0_63.7” value (band b1i0_63.7; Low dose, 3d) was 110.4 and the “band intensity b1i0_63.7” value (band b1i0_63.7; Low dose, 7d) was 146. The “band intensity b1i0_60.7” value (band b1i0_60.7; High dose, 1d) was 53.9, the “band intensity b1i0_60.7” value (band b1i0_60.7; High dose, 3d) was 46.42 and the “band intensity b1i0_60.7” value (band b1i0_60.7; High dose, 7d) was 73.61. For the same molecule, the “band intensity b1i0_60.7” value (band b1i0_60.7; High dose, 14d) was 57.48, the “band intensity b1i0_60.7” value (band b1i0_60.7; Low dose, 1d) was 76.15 and the “band intensity b1i0_60.7” value (band b1i0_60.7; Low dose, 3d) was 72.42. For the same molecule, the “band intensity b1i0_60.7” value (band b1i0_60.7; Low dose, 7d) was 80.22, the “band intensity b1i0_51.7” value (band b1i0_51.7; High dose, 1d) was 35.07 and the “band intensity b1i0_51.7” value (band b1i0_51.7; High dose, 3d) was 32.34. The “band intensity b1i0_51.7” value (band b1i0_51.7; High dose, 7d) was 22.63, the “band intensity b1i0_51.7” value (band b1i0_51.7; High dose, 14d) was 19.9 and the “band intensity b1i0_51.7” value (band b1i0_51.7; Low dose, 1d) was 19.27. The “band intensity b1i0_51.7” value (band b1i0_51.7; Low dose, 3d) was 21.87 and the “band intensity b1i0_51.7” value (band b1i0_51.7; Low dose, 7d) was 12.77.

With Dichlorobenzene the “band intensity b1i0_57.4” value (band b1i0_57.4; High dose, 1d) was 1260, the “band intensity b1i0_57.4” value (band b1i0_57.4; High dose, 3d) was 1064 and the “band intensity b1i0_57.4” value (band b1i0_57.4; High dose, 7d) was 1287. The “band intensity b1i0_57.4” value (band b1i0_57.4; High dose, 14d) was 1142, the “band intensity b1i0_57.4” value (band b1i0_57.4; Low dose, 1d) was 1301 and the “band intensity b1i0_57.4” value (band b1i0_57.4; Low dose, 3d) was 1352. The “band intensity b1i0_57.4” value (band b1i0_57.4; Low dose, 7d) was 1298, the “band intensity b1i0_57.4” value (band b1i0_57.4; Low dose, 14d) was 1338 and the “band intensity b1i0_53.0” value (band b1i0_53.0; High dose, 1d) was 103.4. The “band intensity b1i0_53.0” value (band b1i0_53.0; High dose, 3d) was 48.52, the “band intensity b1i0_53.0” value (band b1i0_53.0; High dose, 7d) was 99.66 and the “band intensity b1i0_53.0” value (band b1i0_53.0; High dose, 14d) was 95.42. The “band intensity b1i0_53.0” value (band b1i0_53.0; Low dose, 1d) was 127.1, the “band intensity b1i0_53.0” value (band b1i0_53.0; Low dose, 3d) was 71.53 and the “band intensity b1i0_53.0” value (band b1i0_53.0; Low dose, 7d) was 113.8. The “band intensity b1i0_53.0” value (band b1i0_53.0; Low dose, 14d) was 116.4, the “band intensity b1i0_69.4” value (band b1i0_69.4; High dose, 1d) was 295.5 and the “band intensity b1i0_69.4” value (band b1i0_69.4; High dose, 3d) was 393.2. The “band intensity b1i0_69.4” value (band b1i0_69.4; High dose, 7d) was 261.7, the “band intensity b1i0_69.4” value (band b1i0_69.4; High dose, 14d) was 311.3 and the “band intensity b1i0_69.4” value (band b1i0_69.4; Low dose, 1d) was 130.6. For the same molecule, the “band intensity b1i0_69.4” value (band b1i0_69.4; Low dose, 3d) was 334.6, the “band intensity b1i0_69.4” value (band b1i0_69.4; Low dose, 7d) was 304.3 and the “band intensity b1i0_69.4” value (band b1i0_69.4; Low dose, 14d) was 333.2913. The “band intensity b1i0_54.5” value (band b1i0_54.5; High dose, 1d) was 91.99, the “band intensity b1i0_54.5” value (band b1i0_54.5; High dose, 3d) was 89.82 and the “band intensity b1i0_54.5” value (band b1i0_54.5; High dose, 7d) was 80.92. For the same molecule, the “band intensity b1i0_54.5” value (band b1i0_54.5; High dose, 14d) was 84.91, the “band intensity b1i0_54.5” value (band b1i0_54.5; Low dose, 1d) was 88.39 and the “band intensity b1i0_54.5” value (band b1i0_54.5; Low dose, 3d) was 128.4. For the same molecule, the “band intensity b1i0_54.5” value (band b1i0_54.5; Low dose, 7d) was 88.11, the “band intensity b1i0_54.5” value (band b1i0_54.5; Low dose, 14d) was 101.4 and the “band intensity b1i0_62.5” value (band b1i0_62.5; High dose, 1d) was 68.45. The “band intensity b1i0_62.5” value (band b1i0_62.5; High dose, 3d) was 97.82, the “band intensity b1i0_62.5” value (band b1i0_62.5; High dose, 7d) was 76.86 and the “band intensity b1i0_62.5” value (band b1i0_62.5; High dose, 14d) was 64.49. For the same molecule, the “band intensity b1i0_62.5” value (band b1i0_62.5; Low dose, 1d) was 73.54, the “band intensity b1i0_62.5” value (band b1i0_62.5; Low dose, 3d) was 76.31 and the “band intensity b1i0_62.5” value (band b1i0_62.5; Low dose, 7d) was 88.91. For the same molecule, the “band intensity b1i0_62.5” value (band b1i0_62.5; Low dose, 14d) was 68.64, the “band intensity b1i0_63.7” value (band b1i0_63.7; High dose, 1d) was 129 and the “band intensity b1i0_63.7” value (band b1i0_63.7; High dose, 3d) was 5.698. The “band intensity b1i0_63.7” value (band b1i0_63.7; High dose, 7d) was 224.3, the “band intensity b1i0_63.7” value (band b1i0_63.7; High dose, 14d) was 157.7 and the “band intensity b1i0_63.7” value (band b1i0_63.7; Low dose, 1d) was 166.2. For the same molecule, the “band intensity b1i0_63.7” value (band b1i0_63.7; Low dose, 3d) was 24.94, the “band intensity b1i0_63.7” value (band b1i0_63.7; Low dose, 7d) was 258.8 and the “band intensity b1i0_63.7” value (band b1i0_63.7; Low dose, 14d) was 152.1. For the same molecule, the “band intensity b1i0_60.7” value (band b1i0_60.7; High dose, 1d) was 79.94, the “band intensity b1i0_60.7” value (band b1i0_60.7; High dose, 3d) was 62.13 and the “band intensity b1i0_60.7” value (band b1i0_60.7; High dose, 7d) was 77.87. The “band intensity b1i0_60.7” value (band b1i0_60.7; High dose, 14d) was 82.42, the “band intensity b1i0_60.7” value (band b1i0_60.7; Low dose, 1d) was 95.98 and the “band intensity b1i0_60.7” value (band b1i0_60.7; Low dose, 3d) was 58.61. The “band intensity b1i0_60.7” value (band b1i0_60.7; Low dose, 7d) was 74.81, the “band intensity b1i0_60.7” value (band b1i0_60.7; Low dose, 14d) was 94.46 and the “band intensity b1i0_51.7” value (band b1i0_51.7; High dose, 1d) was 27.84. For the same molecule, the “band intensity b1i0_51.7” value (band b1i0_51.7; High dose, 3d) was 10.75, the “band intensity b1i0_51.7” value (band b1i0_51.7; High dose, 7d) was 16.63 and the “band intensity b1i0_51.7” value (band b1i0_51.7; High dose, 14d) was 21.77. The “band intensity b1i0_51.7” value (band b1i0_51.7; Low dose, 1d) was 28.93, the “band intensity b1i0_51.7” value (band b1i0_51.7; Low dose, 3d) was 26.06 and the “band intensity b1i0_51.7” value (band b1i0_51.7; Low dose, 7d) was 16.57. For the same molecule, the “band intensity b1i0_51.7” value (band b1i0_51.7; Low dose, 14d) was 23.43.
